# Results as given in publication PMC11620503 (Antimicrobial Agents and Chemotherapy, 2024).
# What was measured:
# CTX-M-14 = CTX-M-14 (Escherichia coli, UniProt Q9L5C7); assay: Ki app determination (Waley's method); details: read-out: Ki app; CTX-M-14; means from three independent studies
# CTX-M-15 = CTX-M-15 (Escherichia coli, UniProt Q9EXV5); assay: Ki app determination (Waley's method); details: read-out: Ki app; CTX-M-15; means from three independent studies
# CTX-M-27 = CTX-M-27 (Escherichia coli, UniProt Q840M4); assay: Ki app determination (Waley's method); details: read-out: Ki app; CTX-M-27; means from three independent studies
# SHV-2 = SHV-2 (Klebsiella pneumoniae, UniProt P0A9Z8); assay: Ki app determination (Waley's method); details: read-out: Ki app; SHV-2; means from three independent studies
# SHV-5 = SHV-5 (Klebsiella pneumoniae, UniProt P0A3M1); assay: Ki app determination (Waley's method); details: read-out: Ki app; SHV-5; means from three independent studies
# SHV-12 = SHV-12 (Klebsiella pneumoniae, UniProt P0A3M1, L31Q); assay: Ki app determination (Waley's method); details: read-out: Ki app; SHV-12; means from three independent studies
# ACT-17 = ACT-17 (Enterobacter cloacae complex, UniProt Q8KP20); assay: Ki app determination (Waley's method); details: read-out: Ki app, means from three independent studies
# PDC-11 = PDC-11 (Pseudomonas aeruginosa, UniProt P24735, form not given, species not given); assay: Ki app determination (Waley's method); details: read-out: Ki app, means from three independent studies
# KPC-2 = KPC-2 (Klebsiella pneumoniae, UniProt Q9F663); assay: Ki app determination (Waley's method); details: read-out: Ki app; KPC-2; means from three independent studies
# KPC-3 = KPC-3 (Klebsiella pneumoniae, UniProt Q9F663, H272Y); assay: Ki app determination (Waley's method); details: read-out: Ki app; KPC-3; means from three independent studies
# KPC-38 = KPC-38 (Klebsiella pneumoniae, UniProt Q9F663); assay: Ki app determination (Waley's method); details: read-out: Ki app, means from three independent studies
# OXA-48 = OXA-48 (Klebsiella pneumoniae, UniProt Q6XEC0); assay: Ki app determination (Waley's method); details: read-out: Ki app; OXA-48; means from three independent studies
# OXA-23 = OXA-23 (Acinetobacter baumannii, UniProt Q9L4P2); assay: Ki app determination (Waley's method); details: read-out: Ki app; OXA-23; means from three independent studies
# OXA-24 = OXA-24 (Acinetobacter baumannii, UniProt Q8RLA6); assay: Ki app determination (Waley's method); details: read-out: Ki app; OXA-24; means from three independent studies
# OXA-65 = OXA-65 (Acinetobacter baumannii, UniProt Q58XD3); assay: Ki app determination (Waley's method); details: read-out: Ki app; OXA-65; means from three independent studies
# OXA-66 = OXA-66 (Acinetobacter baumannii, UniProt Q58XD2); assay: Ki app determination (Waley's method); details: read-out: Ki app; OXA-66; means from three independent studies
# OXA-72 = OXA-72 (Acinetobacter baumannii, UniProt Q5XQU0); assay: Ki app determination (Waley's method); details: read-out: Ki app; OXA-72; means from three independent studies
# VIM-1 = VIM-1 (Pseudomonas aeruginosa, UniProt A0A0F7KYQ8); assay: Ki app determination (Waley's method); details: read-out: Ki app; VIM-1; means from three independent studies
# VIM-2 = VIM-2 (Escherichia coli, UniProt Q5U7L7); assay: Ki app determination (Waley's method); details: read-out: Ki app; VIM-2; means from three independent studies
# IMP-1 = IMP-1 (Serratia marcescens, UniProt P52699); assay: Ki app determination (Waley's method); details: read-out: Ki app; IMP-1; means from three independent studies
# IMP-6 = IMP-6 (Serratia marcescens, UniProt P52699, S214G); assay: Ki app determination (Waley's method); details: read-out: Ki app; IMP-6; means from three independent studies
# [1] = tested on: Clostridioides difficile ATCC 700057; assay: MIC, agar dilution, reference strains of anaerobic bacteria; type: cell-based; details: ATCC700057
# [2] = tested on: Clostridioides difficile ATCC 43255; assay: as above; type: cell-based; details: ATCC43255
# [3] = tested on: Clostridioides difficile ATCC BAA-1803; assay: as above; type: cell-based; details: ATCCBAA1803
# [4] = tested on: Clostridioides difficile ATCC BAA-1870; assay: as above; type: cell-based; details: ATCCBAA1870
# [5] = tested on: Clostridium perfringens ATCC 13124; assay: microbe, parasite or virus in culture; type: cell-based; details: ATCC13124
# [6] = tested on: Peptostreptococcus anaerobius ATCC 27337; assay: MIC, agar dilution, reference strains of anaerobic bacteria; type: cell-based; details: ATCC27337
# [7] = tested on: Peptoniphilus asaccharolyticus ATCC 14963; assay: as above; type: cell-based; details: ATCC14963
# Parvimonas micra KUB3000 = assay: as above; type: cell-based
# [8] = tested on: Finegoldia magna ATCC 29328; assay: as above; type: cell-based; details: ATCC29328
# [9] = tested on: Eggerthella lenta ATCC 43055; assay: as above; type: cell-based; details: ATCC43055
# Olsenella uli KUB3012 = assay: as above; type: cell-based
# [10] = tested on: Bulleidia extructa KUB3013; assay: as above; type: cell-based
# Atopobium rimae KUB3014 = assay: as above; type: cell-based; details: Lancefieldella rimae
# [11] = tested on: Propionibacterium acnes ATCC 11827; assay: as above; type: cell-based; details: Cutibacterium acnes, ATCC11827
# [12] = tested on: Actinomyces odontolyticus ATCC 17929; assay: as above; type: cell-based; details: Schaalia odontolytica, ATCC17929
# [13] = tested on: Bacteroides fragilis ATCC 25285; assay: as above; type: cell-based; details: ATCC25285
# [14] = tested on: Bacteroides fragilis KUB2982; assay: as above; type: cell-based
# [15] = tested on: Bacteroides fragilis KUB2983; assay: as above; type: cell-based
# [16] = tested on: Bacteroides thetaiotaomicron ATCC 29741; assay: as above; type: cell-based; details: ATCC29741
# [17] = tested on: Bacteroides thetaiotaomicron KUB2984; assay: as above; type: cell-based
# [18] = tested on: Bacteroides ovatus KUB3009; assay: as above; type: cell-based
# [19] = tested on: Prevotella histicola KUB2989; assay: as above; type: cell-based
# [20] = tested on: Prevotella intermedia KUB2991; assay: as above; type: cell-based
# [21] = tested on: Prevotella melaninogenica KUB3005; assay: as above; type: cell-based
# [22] = tested on: Prevotella buccae KUB2992; assay: as above; type: cell-based; details: Segatella buccae
# [23] = tested on: Fusobacterium varium ATCC 27725; assay: as above; type: cell-based; details: ATCC27725
# [24] = tested on: Fusobacterium nucleatum ATCC 25586; assay: as above; type: cell-based; details: ATCC25586
smiles,measurement,setting,value
"NCCN[C@H]1CC[C@H](CC(=O)N[C@H]2Cc3cccc(C(=O)O)c3OB2O)CC1 [Tanibobactam, taniborbactam]",Ki,CTX-M-14,0.0607 ± 0.0257 nM
same,Ki,CTX-M-15,0.0245 ± 0.0103 nM
same,Ki,CTX-M-27,0.0344 ± 0.013 nM
same,Ki,SHV-2,20 ± 2.39 nM
same,Ki,SHV-5,5.9 ± 1.8 nM
same,Ki,SHV-12,4.73 ± 0.182 nM
same,Ki,ACT-17,12.6 ± 1.55 nM
same,Ki,PDC-11,34.6 ± 2.2 nM
same,Ki,KPC-2,1.1 ± 0.229 nM
same,Ki,KPC-3,0.947 ± 0.259 nM
same,Ki,KPC-38,0.617 ± 0.0841 nM
same,Ki,OXA-48,204 ± 31 nM
same,Ki,OXA-23,> 100000 nM
same,Ki,OXA-24,2080 nM
same,Ki,OXA-65,> 100000 nM
same,Ki,OXA-66,61700 nM
same,Ki,OXA-72,25200 nM
same,Ki,VIM-1,271 ± 46.7 nM
same,Ki,VIM-2,322 ± 50 nM
same,Ki,IMP-1,> 100000 nM
same,Ki,IMP-6,> 100000 nM
"Cc1ncc([N+](=O)[O-])n1CCO [Metronidazole, metronidazole]",MIC,[1],0.5 µg/mL
same,MIC,[2],1 µg/mL
same,MIC,[3],2 µg/mL
same,MIC,[4],1 µg/mL
same,MIC,[5],2 µg/mL
same,MIC,[6],0.5 µg/mL
same,MIC,[7],1 µg/mL
same,MIC,Parvimonas micra KUB3000,0.5 µg/mL
same,MIC,[8],2 µg/mL
same,MIC,[9],1 µg/mL
same,MIC,Olsenella uli KUB3012,4 µg/mL
same,MIC,[10],2 µg/mL
same,MIC,Atopobium rimae KUB3014,1 µg/mL
same,MIC,[11],> 64 µg/mL
same,MIC,[12],> 64 µg/mL
same,MIC,[13],1 µg/mL
same,MIC,[14],2 µg/mL
same,MIC,[15],0.5 µg/mL
same,MIC,[16],2 µg/mL
same,MIC,[17],1 µg/mL
same,MIC,[18],1 µg/mL
same,MIC,[19],2 µg/mL
same,MIC,[20],1 µg/mL
same,MIC,[21],1 µg/mL
same,MIC,[22],2 µg/mL
same,MIC,[23],0.5 µg/mL
same,MIC,[24],≤ 0.125 µg/mL
